The source of these data is patent US7375215B2, “Compounds for PDT” (Bioscience Technology Investment Holdings Limited, priority 2000, dated 2008).

Data set [1] has as its system syngeneic colo26 tumour implanted subcutaneously. As to the kind of experiment: Tumour PDT activity (tumour necrosis) in mouse implanted colorectal tumour model.
Excerpt: Information on the tumour PDT activity have been obtained in the aforementioned mouse model bearing the syngeneic colo26 tumour implanted subcutaneously at the top of the left hind leg (approximately 1 cm lateral to the spine). The tumours were used after 12 to 16 days when they had reached an average diameter of 8 to 10 mm. For drug injection and irradiation animals were sedated with Hypnorm diluted in water (1:3).
For the next data set, the system named is tumour and muscle. Conditions: cited from earlier work.
Data set [2] relates to syngeneic colo26 tumour implanted subcutaneously. Conditions: 4.4 μmol kg^−1; drug-light interval 72 hours; light 652 nm; cited from earlier work.
Data set [3] is described as follows: Plasma and tissue photosensitiser concentrations in tumour-bearing mice. Here is the method:
Adult female Balb/c mice bearing the syngeneic colo26 tumour implanted subcutaneously were produced using methods previously described (Ansell et al. Lasers in Medical Science 1997, 12, 336-41). Groups of mice of weight 19-22 g were given the photosensitisers at a dose of 0.88 μmol kg^−1 (equivalent to 0.6 mg kg^−1 in the case of m-THPC) by injection into the tail vein. The solutions for injection of each compound were prepared at a concentration of 0.352 μmol ml^−1 so that a typical 20 g mouse would be injected with a volume of 50 μl.
Animals were sacrificed at 6, 24, 72 and 192 hours after injection of each photosensitiser. Immediately after sacrifice, blood was obtained by cardiac puncture, and centrifuged at 13,000×g for three minutes. The resulting supernatant (blood plasma) was aspirated and stored at −70° C. for subsequent analysis. The photosensitiser content of each sample was measured from the fluorescence of an extract obtained using methanol:DMSO (3:5, v:v). A 50 μl portion of each extract was transferred to a disposable fluorescence cuvette and the fluorescence determined using an excitation wavelength of 418 nm and emission wavelength of 650 nm with an eight second response setting. The assay was calibrated using stock solutions of each compound in methanol, further diluted in methanol:water (1:1, v/v) and extracted with methanol:DMSO as described above. […] The measurement protocol was designed to dilute each sample to a sufficient extent to avoid interference by endogenous chromophores (absorbance of samples <<0.1 at the excitation wavelength).
The selectivity for tumour specific tissue distribution was also evaluated in this work. Tissue selectivity was evaluated as the tumour:muscle concentration ratio over the duration of the observation period (4-192 hours post-administration). This ratio provided a direct measure of the normal tissue to tumour tissue differential in concentrations and allows selection of an optimal treatment time for PDT that minimises the potential to cause collateral damage of normal tissues.

The test system of data set [4] is Colo26 mouse colorectal tumour cells. As to the kind of experiment: Uptake by Colo26 tumour cells in culture. The data set is classed as cell-based. Conditions: 1.5 μM; for 6 hour uptake (millions of molecules per cell) / 24 hour uptake (millions of molecules per cell) / Rate of uptake 6-24 h (thousands of molecules per cell per hour): Colo26 cells. Here is the method: Colo26 mouse colorectal tumour cells were grown in culture using standard methods. […] At the end of the set time period, the culture medium containing the added photosensitiser was removed and the cells washed with cold phosphate buffered saline. The cells were freed from the culture flask by treatment with trypsin solution. The viable cell count was determined using a standard haemocytometer and the photosensitiser extracted from the cells by treatment with methanol:DMSO (4:1, v:v). Cell extracts were frozen in liquid nitrogen and stored at −70° C. for later analysis. The photosensitiser content of the cell extract was determined by direct fluorescence using standard curves of photosensitiser and correcting for extraction efficiency from the cell suspension. […] (millions of molecules per cell, m against time t (hours)). […] The uptake of m-THPC is rapid, reaching a peak around 24 hours after which the photosensitiser content of the cells declines. […] However, the amount of photosensitiser taken up is greater. […] The mechanism of photosensitiser uptake by cells remains a subject of study. In the case of small hydrophobic sensitisers such as m-THPC, which are generally presented to cells bound to protein or lipoprotein in biological systems, a role for specific lipoprotein receptors has been implicated. […] One way in which uptake mechanisms may be studied is by determining the influence of temperature. In general, active (energy-dependent) uptake processes are inhibited in cells maintained at 4° C. compared to those at 37° C. Passive (energy-independent) uptake processes are much less temperature-dependent.

The test system of the next data set is Balb/c mice. In words: Cutaneous photosensitivity (ear thickness after xenon light irradiation). The note with it: 0.88 μmol kg^−1, 40 Joules per cm^2 xenon light. Format: in vivo. The method, then:
Cutaneous photosensitivity was determined in adult female Balb/c mice, held under standard conditions and allowed access to food and water ad libitum. […] Each mouse was weighed immediately before injection and the injected volume adjusted to give the correct dose.
At 24 or 72 hours after photosensitiser injection one ear of each mouse was irradiated with full-spectrum xenon light from a 1 KW clinical photo-irradiator (Model UV-90, Applied Photophysics, London). The light was delivered to the ear using a 7 mm diameter light guide (Serial SU3) placed lightly against the ear. The light dose given was 40 Joules per cm^2, which was achieved by exposing the ear for 63 seconds to 245 mW of light from the light guide having a contact area of 0.384 cm^2. The light guide filtered infra-red and ultra-violet light, so as to minimise heating of the ear and damage resulting from ultra-violet light irradiation.
Animals treated with light at the 24 or 72 hour drug-light intervals were killed at 48 or 24 hours respectively after irradiation of the ears. The oedema of the irradiated and control ears was assessed by measuring ear thickness. The thickness of the ear was measured at three sites on the upper third of the ear using a fixed-force micrometer with a vernier-interpolated resolution of 2 μm and an accuracy of 10 μm (Neill instruments).

Data set [5] can be described thus: Spectroscopic properties (absorbance, fluorescence). Format: physicochemical. The note with it: for Fluorescence in aqueous solution relative to ethanol: excited at 405 nm, indicates aggregation in water; for Molar extinction coefficient at the red peak: red absorption peak.
The conditions of data set [6]: usual clinical dose of 0.15 mg kg^−1; cited from earlier work.
A short description of a further data set: Solubility in water. Format: physicochemical.
Setting [7] is: 0.88 μmol kg^−1 i.v., 6-192 hours.

Turning to “tetrakis (ω-methoxypolyethylene glycol [MW=2000] triazine of 7,8-dihydro-5,10,15,20-tetrakis(3-hydroxyphenyl)porphyrin [SPC 0038B]”, the “Fold less potency in comparison to SPC 0172 and m-THPC” value in [1] (optimal drug-light interval of 72 hours, dose level and degree of tumour necrosis basis) was 10-20 fold. Moreover, the “Time for which tumour retained maximum sensitivity to light” value in the data set on tumour and muscle (after drug administration, mouse model) is reported as “at least 15 days”. In addition, the “Time of peak concentration in muscle” value in the data set with tumour and muscle (after injection) is not above 72 h. For the same molecule, the Muscle photosensitivity result in the data set on tumour and muscle (three days after administration, mouse model) is recorded as “no longer photosensitive”. The “PDT treatment times with sustained PDT tumour necrosis” value with tumour and muscle (tumour bioactivity) was 4 to 15 days. In addition, in data set [2], the “Biological effect (mm of tumour necrosis)” value is recorded as 3.3 ± 0.7 ^1 mm. Besides, the “Excretion from the liver” value in data set [3] (mouse, in vivo) is recorded as “more slowly than m-THPC”. For the same molecule, the “Uptake in the cold compared with 37° C.” value in [4] (4° C. versus 37° C.) was “twice as great in the cold than at 37 °C”. In data set [4] (4° C.), the “6 hour uptake (millions of molecules per cell)” value is recorded as 0.56 millions of molecules per cell, the “24 hour uptake (millions of molecules per cell)” value is on record as 0.64 millions of molecules per cell and the “Rate of uptake 6-24 h (thousands of molecules per cell per hour)” value is 4 thousands of molecules per cel. Besides, in [4] (37° C.), the “6 hour uptake (millions of molecules per cell)” value is given as 0.82 millions of molecules per cell, the “24 hour uptake (millions of molecules per cell)” value is reported as 0.86 millions of molecules per cell and the “Rate of uptake 6-24 h (thousands of molecules per cell per hour)” value is on record as 2 thousands of molecules per cel. Besides, the “Cell photosensitiser content, factor less than that of m-THPC” value in [4] (after 72 hours incubation, 37° C.) is approximately 100. The “Differences in ear thickness (irradiated-control), Mean” value (shortened to “Differences in ear thickness”) in the data set on Balb/c mice (24 h drug-light interval) came out at 25 μm. Further, the “Differences in ear thickness” value in the data set on Balb/c mice (72 h drug-light interval) is given as 4 μm. Also, the “Fluorescence in aqueous solution relative to ethanol” value in data set [5] was 47%.

Regarding “tetrakis (6′-(methoxy PEG 2000 carbamate)1′-isocyanate hexamethylene) derivative of 7,8dihydro-5,10,15,20-tetrakis(3-hydroxyphenyl)porphyrin [SPC 0172]”, in data set [1] (Balb/c mice bearing colo26), the “PDT activity compared with m-THPC” value was “same PDT activity as m-THPC” and the “Time of maximum photodynamic effect in tumour” value is on record as 2 days. In addition, in data set [1] (particularly at the two day drug-light interval), the “Damage of surrounding skin and underlying muscle at treated sites” value was “only limited damage of the surrounding skin and underlying muscle”. Further, the “Tumour damage at a range of drug-light intervals” value in data set [1] (same dose (1.76 μmol kg^−1), light dose 20 J cm^−2, all drug-light intervals up to 72 hours) is given as “Full thickness tumour damage”. Also, in [3] (setting [7]), the Liver photosensitiser levels entry is “lower and eliminated more quickly”; the Plasma concentration-time profile entry is “lower absolute levels and more rapid elimination”; the Skin photosensitiser concentrations result is “low throughout the 6-192 hour measurement period”. In addition, in data set [3] (72 hours post-administration, 0.88 μmol kg^−1 i.v.), the “Tumour:muscle concentration ratio” value is on record as “about 7.5”. Also, the “Time of optimal tumour:muscle concentration ratio” value in data set [3] (post-administration, 0.88 μmol kg^−1 i.v.) is 72 h. Besides, the “Uptake on cooling as share of that at 37° C.” value in [4] (4° C. versus 37° C.) is “about 75%”. Moreover, in [4] (4° C.), the “6 hour uptake (millions of molecules per cell)” value was 1.08 millions of molecules per cell, the “24 hour uptake (millions of molecules per cell)” value is listed as 1.78 millions of molecules per cell and the “Rate of uptake 6-24 h (thousands of molecules per cell per hour)” value is 39 thousands of molecules per cel. In data set [4] (37° C.), the “6 hour uptake (millions of molecules per cell)” value is recorded as 1.12 millions of molecules per cell, the “24 hour uptake (millions of molecules per cell)” value is on record as 2.08 millions of molecules per cell and the “Rate of uptake 6-24 h (thousands of molecules per cell per hour)” value is reported as 53 thousands of molecules per cel. Further, the “Cell photosensitiser content, times as much as SPC 0038B” value in data set [4] (after 72 hours of incubation, 37° C.) is on record as “about 5”. Moreover, the “Differences in ear thickness” value with Balb/c mice (24 h drug-light interval) was 2 μm. Further, the “Differences in ear thickness” value in the data set on Balb/c mice (72 h drug-light interval) amounted to 0 μm. For the same molecule, in data set [5], the “Fluorescence in aqueous solution relative to ethanol” value came out at 36% and the “Molar extinction coefficient at the red peak” value is recorded as ~22,000 L mol^−1 cm^−1.

As to `Oc1cccc(-c2c3nc(c(-c4cccc(O)c4)c4ccc([nH]4)c(-c4cccc(O)c4)c4nc(c(-c5cccc(O)c5)c5ccc2[nH]5)CC4)C=C3)c1` [m-THPC, 7,8-dihydro-5,10,15,20-tetrakis(3-hydroxyphenyl)porphyrin], in data set [6], the “Duration of skin sensitivity” value is reported as 2-3 weeks. The Solubility in water result in the data set “Solubility in water” (water) is “insoluble”. Further, the Solubility in water entry in the data set “Solubility in water” (water / aqueous solvents) is “insoluble in aqueous solvents”. Moreover, the “Inhibition of uptake at 4° C., factor” value in data set [4] (4° C. versus 37° C.) was “over 250”. Also, in data set [4] (4° C.), the “6 hour uptake (millions of molecules per cell)” value is given as 0.82 millions of molecules per cell, the “24 hour uptake (millions of molecules per cell)” value was 1.33 millions of molecules per cell and the “Rate of uptake 6-24 h (thousands of molecules per cell per hour)” value was 28 thousands of molecules per cel. In data set [4] (37° C.), the “Time of peak uptake by tumour cells” value is on record as “around 24 hours”, the “6 hour uptake (millions of molecules per cell)” value is listed as 79.2 millions of molecules per cell, the “24 hour uptake (millions of molecules per cell)” value is on record as 208 millions of molecules per cell and the “Rate of uptake 6-24 h (thousands of molecules per cell per hour)” value was 7184 thousands of molecules per cel. For the same molecule, in the data set with Balb/c mice (24 h drug-light interval), the “Differences in ear thickness” value was found to be 41 μm. Also, the “Differences in ear thickness” value in the data set with Balb/c mice (72 h drug-light interval) came out at 2 μm. In [5], the “Fluorescence in aqueous solution relative to ethanol” value is on record as “severely quenched” and the “Molar extinction coefficient at the red peak” value is reported as ~30,000 L mol^−1 cm^−1.
